Results reported in patent US11358953B2, “Functionalized peptides as antiviral agents” (ENANTA PHARMACEUTICALS, INC., priority 2020, dated 2022).

molecular target: SARS-CoV-2 3CL-protease (Severe acute respiratory syndrome coronavirus 2 (2019-nCoV) (SARS-CoV-2), UniProt P0DTD1); assay: SARS-CoV-2 3C-like (3CL) protease fluorescence assay (FRET); format: biochemical; conditions: recombinant SARS-CoV-2 3CL-protease 10 nM, 30 min preincubation at RT, substrate 40 μM, duplicate

Structure (SMILES) | IC50 [µM]
N#C[C@H](C[C@@H]1CCNC1=O)NC(=O)[C@@H]1[C@H]2CCC[C@H]2CN1C(=O)c1cc2c(OC(F)F)cccc2[nH]1 [Ex3, (1S,3aR,6aS)—N—((S)-1-cyano-2-((S)-2-oxopyrrolidin-3-yl)ethyl)-2-(4-(difluoromethoxy)-1H-indole-2-carbonyl)octahydrocyclopenta[c]pyrrole-1-carboxamide] | 0.1 to 1
COc1cccc2[nH]c(C(=O)N3C[C@@H]4CCC[C@@H]4[C@H]3C(=O)N[C@@H](C[C@@H]3CCNC3=O)C(=O)CO)cc12 [Ex10, (1S,3aR,6aS)—N—((S)-4-hydroxy-3-oxo-1-((S)-2-oxopyrrolidin-3-yl)butan-2-yl)-2-(4-methoxy-1H-indole-2-carbonyl)octahydrocyclopenta[c]pyrrole-1-carboxamide] | 0.1 to 1
CCC(=O)N[C@H](C(=O)N1C[C@H]2[C@@H]([C@H]1C(=O)N[C@H](C#N)C[C@@H]1CCNC1=O)C2(C)C)C(C)(C)C [Ex26, (1R,2S,5S)—N—((S)-1-cyano-2-((S)-2-oxopyrrolidin-3-yl)ethyl)-3-((S)-3,3-dimethyl-2-propionamidobutanoyl)-6,6-dimethyl-3-azabicyclo[3.1.0]hexane-2-carboxamide] | < 0.1
CC1(C)[C@@H]2[C@@H](C(=O)N[C@H](C#N)C[C@@H]3CCNC3=O)N(C(=O)c3cc4cc(F)cc(F)c4[nH]3)C[C@@H]21 [Ex16, (1R,2S,5S)—N—((S)-1-cyano-2-((S)-2-oxopyrrolidin-3-yl)ethyl)-3-(5,7-difluoro-1H-indole-2-carbonyl)-6,6-dimethyl-3-azabicyclo[3.1.0]hexane-2-carboxamide] | 0.1 to 1
N#C[C@H](C[C@@H]1CCNC1=O)NC(=O)[C@@H]1[C@H]2CCC[C@H]2CN1C(=O)c1cc2c(F)cc(F)cc2[nH]1 [Ex13, (1S,3aR,6aS)—N—((S)-1-cyano-2-((S)-2-oxopyrrolidin-3-yl)ethyl)-2-(4,6-difluoro-1H-indole-2-carbonyl)octahydrocyclopenta[c]pyrrole-1-carboxamide] | 0.1 to 1
CC1(C)[C@@H]2[C@@H](C(=O)N[C@H](C#N)C[C@@H]3CCNC3=O)N(C(=O)c3cc4c(F)ccc(F)c4[nH]3)C[C@@H]21 [Ex20, (1R,2S,5S)—N—((S)-1-cyano-2-((S)-2-oxopyrrolidin-3-yl)ethyl)-3-(4,7-difluoro-1H-indole-2-carbonyl)-6,6-dimethyl-3-azabicyclo[3.1.0]hexane-2-carboxamide] | 0.1 to 1
COc1cccc2[nH]c(C(=O)N3C[C@@H]4CCC[C@@H]4[C@H]3C(=O)N[C@@H](C[C@@H]3CCNC3=O)C(=O)CCl)cc12 [Ex1, (1S,3aR,6aS)—N—((S)-4-chloro-3-oxo-1-((S)-2-oxopyrrolidin-3-yl)butan-2-yl)-2-(4-methoxy-1H-indole-2-carbonyl)octahydrocyclopenta[c]pyrrole-1-carboxamide] | 0.1 to 1
CC(C)(C)[C@H](NC(=O)C1CCCCC1)C(=O)N1C[C@H]2[C@@H]([C@H]1C(=O)N[C@H](C#N)C[C@@H]1CCNC1=O)C2(C)C [Ex25, (1R,2S,5S)—N—((S)-1-cyano-2-((S)-2-oxopyrrolidin-3-yl)ethyl)-3-((S)-2-(cyclohexanecarboxamido)-3,3-dimethylbutanoyl)-6,6-dimethyl-3-azabicyclo[3.1.0]hexane-2-carboxamide] | < 0.1
CC(C)(C)C(=O)N[C@H](C(=O)N1C[C@H]2[C@@H]([C@H]1C(=O)N[C@H](C#N)C[C@@H]1CCNC1=O)C2(C)C)C(C)(C)C [Ex28, (1R,2S,5S)—N—((S)-1-cyano-2-((S)-2-oxopyrrolidin-3-yl)ethyl)-3-((S)-3,3-dimethyl-2-pivalamidobutanoyl)-6,6-dimethyl-3-azabicyclo[3.1.0]hexane-2-carboxamide] | < 0.1
O=C(NCc1ccccc1)C(=O)[C@H](C[C@@H]1CCNC1=O)NC(=O)[C@@H]1[C@H]2CCC[C@H]2CN1C(=O)c1cc2c(OC(F)F)cccc2[nH]1 [Ex15, (1S,3aR,6aS)—N—((S)-4-(benzylamino)-3,4-dioxo-1-((S)-2-oxopyrrolidin-3-yl)butan-2-yl)-2-(4-(difluoromethoxy)-1H-indole-2-carbonyl)octahydrocyclopenta[c]pyrrole-1-carboxamide] | < 0.1
